Data published in the NIST ThermoML archive (doi:10.1021/je060271a).
Where “and” joins values, the source holds several entries; their conditions need not be identical. Equal values may be shown once.

Details: 283.15 K, Liquid, Vibrating tube method

CCCCCCCC(=O)OCC(COC(=O)CCCCCCC)(COC(=O)CCCCCCC)COC(=O)CCCCCCC [pentaerythritol tetraoctanoate]
Details	mass density
105.3 kPa	970.3 kg/m3
105.5 kPa	970.3 kg/m3 and 970.4 kg/m3
105.6 kPa	970.3 kg/m3
105.8 kPa	970.4 kg/m3
106.7 kPa	970.3 kg/m3
110 kPa	970.3 kg/m3
125.3 kPa	970.3 kg/m3
155.9 kPa	970.3 kg/m3
203.3 kPa	970.4 kg/m3
224.9 kPa	970.3 kg/m3
235.2 kPa	970.4 kg/m3
246.6 kPa	970.5 kg/m3
262.8 kPa	970.4 kg/m3
277.9 kPa	970.4 kg/m3
295.3 kPa	970.4 kg/m3
319.3 kPa	970.4 kg/m3
342 kPa	970.5 kg/m3
369 kPa	970.5 kg/m3
405 kPa	970.4 kg/m3
438.1 kPa	970.4 kg/m3
468.4 kPa	970.6 kg/m3
495.5 kPa	970.6 kg/m3
514.6 kPa	970.6 kg/m3
534.1 kPa	970.6 kg/m3
557.4 kPa	970.6 kg/m3
575.1 kPa	970.6 kg/m3
593.5 kPa	970.7 kg/m3
616.6 kPa	970.7 kg/m3
636.3 kPa	970.5 kg/m3
653.5 kPa	970.7 kg/m3
671.5 kPa	970.7 kg/m3
693.4 kPa	970.7 kg/m3
713.6 kPa	970.7 kg/m3
734.1 kPa	970.7 kg/m3
760.8 kPa	970.8 kg/m3
784.3 kPa	970.7 kg/m3
808.6 kPa	970.7 kg/m3
834.5 kPa	970.7 kg/m3
866.8 kPa	970.7 kg/m3
896 kPa	970.7 kg/m3
926.4 kPa	970.8 kg/m3
962 kPa	970.8 kg/m3
986 kPa	970.9 kg/m3
1010.4 kPa	970.9 kg/m3
1035.5 kPa	970.8 kg/m3
1066.4 kPa	970.9 kg/m3
1094 kPa	970.9 kg/m3
1122.1 kPa	970.9 kg/m3
1158.4 kPa	971 kg/m3
1189.3 kPa	971 kg/m3
1219.2 kPa	971 kg/m3
1247.3 kPa	971 kg/m3
1270.1 kPa	971 kg/m3
1293 kPa	971 kg/m3
1317.3 kPa	971 kg/m3
1349.3 kPa	971.1 kg/m3
1370.1 kPa	971 kg/m3
1401.5 kPa	971 kg/m3
1428.9 kPa	971 kg/m3
1457.4 kPa	971 kg/m3
1492.1 kPa	971.2 kg/m3
1522.7 kPa	971.1 kg/m3
1554.3 kPa	971.1 kg/m3
1587.1 kPa	971.2 kg/m3
1627.7 kPa	971.1 kg/m3
1662.8 kPa	971.2 kg/m3
1700.3 kPa	971.2 kg/m3
1747.1 kPa	971.3 kg/m3
1789.7 kPa	971.2 kg/m3
1830.4 kPa	971.3 kg/m3
1873.1 kPa	971.3 kg/m3
1917.2 kPa	971.4 kg/m3
1972.4 kPa	971.4 kg/m3
2020.6 kPa	971.4 kg/m3
2068.2 kPa	971.4 kg/m3
2110.9 kPa	971.5 kg/m3
2137.9 kPa	971.4 kg/m3
2158.6 kPa	971.5 kg/m3
2179.8 kPa	971.5 kg/m3
2205.6 kPa	971.5 kg/m3
2227.8 kPa	971.7 kg/m3
2250.5 kPa	971.5 kg/m3
2273.6 kPa	971.6 kg/m3
2301.4 kPa	971.6 kg/m3
2325.3 kPa	971.7 kg/m3
2348.9 kPa	971.5 kg/m3
2373 kPa	971.7 kg/m3
2403 kPa	971.7 kg/m3
2427.5 kPa	971.6 kg/m3
2457.8 kPa	971.7 kg/m3
2484 kPa	971.6 kg/m3
2510.7 kPa	971.8 kg/m3
2543.2 kPa	971.8 kg/m3
2571.1 kPa	971.7 kg/m3
2600.6 kPa	971.7 kg/m3
2629 kPa	971.8 kg/m3
2663.7 kPa	971.7 kg/m3
2693.4 kPa	971.8 kg/m3
2723.9 kPa	971.8 kg/m3
2760.8 kPa	971.9 kg/m3
2792.7 kPa	971.8 kg/m3
2824.8 kPa	971.9 kg/m3
2857.6 kPa	971.9 kg/m3
2897.6 kPa	971.9 kg/m3
2931.4 kPa	971.9 kg/m3
2966.3 kPa	972 kg/m3
3008.8 kPa	972 kg/m3
3045.9 kPa	972.1 kg/m3
3082.4 kPa	972.1 kg/m3
3127.9 kPa	971.9 kg/m3
3166.3 kPa	972 kg/m3
3205 kPa	972.1 kg/m3
3245 kPa	972 kg/m3
3285.9 kPa	972.1 kg/m3
3335.9 kPa	972.2 kg/m3
3377.6 kPa	972.1 kg/m3
3420.8 kPa	972.2 kg/m3
3473.3 kPa	972.3 kg/m3
3517.6 kPa	972.2 kg/m3
3564.3 kPa	972.3 kg/m3
3620 kPa	972.3 kg/m3
3667.5 kPa	972.3 kg/m3
3715.9 kPa	972.5 kg/m3
3763.5 kPa	972.5 kg/m3
3809.1 kPa	972.5 kg/m3
3824.1 kPa	972.4 kg/m3
3841.3 kPa	972.6 kg/m3
3855.7 kPa	972.5 kg/m3
3869.7 kPa	972.6 kg/m3
3883.9 kPa	972.5 kg/m3
3899.8 kPa	972.5 kg/m3
4015.4 kPa	972.5 kg/m3
4176.4 kPa	972.7 kg/m3
4313.4 kPa	972.7 kg/m3
4335.2 kPa	972.8 kg/m3
4353.7 kPa	972.9 kg/m3
4372.3 kPa	972.8 kg/m3
4391.7 kPa	972.7 kg/m3
4414.3 kPa	972.8 kg/m3
4433.6 kPa	972.8 kg/m3
4453.1 kPa	972.8 kg/m3
4475.4 kPa	972.8 kg/m3
4475.5 kPa	972.8 kg/m3
4478.4 kPa	972.9 kg/m3
4490.5 kPa	972.9 kg/m3
4492.3 kPa	972.8 kg/m3
4499.1 kPa	972.9 kg/m3
